Measured values: ChEMBL document CHEMBL1687859, “Therapeutic efficacy of halocidin-derived peptide HG1 in a mouse model of surgical wound infection with methicillin-resistant Staphylococcus aureus” (Antimicrob Agents Chemother, 2011)
Converted amounts (≈) assume the structure as drawn. The source made the active and inactive calls. No cut-off for these calls is given here. Bridge positions count the residues as written; N and C are the ends. Peptide text beside a SMILES is read from it. I, II: the chains in the order shown.

Experiments:
[1] = system: Staphylococcus aureus; test: Antibacterial activity against methicillin-resistant Staphylococcus aureus infected in ICR mouse surgical wound model assessed as reduction of CFU administered topically every 12 hrs for 5 days; assay type: functional
[2] = system: Staphylococcus aureus; test: Antibacterial activity against methicillin-resistant Staphylococcus aureus; assay type: functional
[3] = system: Zone of skin; test: Drug penetration in ethidium bromide-labeled methicillin-resistant Staphylococcus aureus infected ICR mouse skin administered topically after 4 hrs by confocal microscopic analysis; assay type: ADME, tissue-based; conditions: in vivo, topical_or_ocular
[4] = system: Zone of skin; test: Drug penetration in ICR mouse skin administered topically using plastic cylinder by HPLC analysis; assay type: ADME, tissue-based; conditions: in vivo, topical_or_ocular
[5] = system: Staphylococcus aureus; test: Drug binding to ethidium bromide-labeled methicillin-resistant Staphylococcus aureus infected in ICR mouse skin administered topically after 4 hrs by confocal microscopic analysis; assay type: ADME, organism-based; conditions: in vivo, topical_or_ocular
[6] = system: Zone of skin; test: Drug penetration in ICR mouse skin administered topically using plastic cylinder by immunoblotting; assay type: ADME, tissue-based; conditions: in vivo, topical_or_ocular
[7] = system: Staphylococcus aureus; test: Antibacterial activity against ethidium bromide-labeled methicillin-resistant Staphylococcus aureus infected in ICR mouse skin administered topically after 4 hrs by confocal microscopic analysis; assay type: functional, organism-based
[8] = system: Zone of skin; test: Drug penetration in ICR mouse skin administered topically using plastic cylinder by fluorescence microscopy; assay type: ADME, tissue-based; conditions: in vivo, topical_or_ocular

CC(C)C[C@H](NC(=O)CNC(=O)[C@H](Cc1cnc[nH]1)NC(=O)[C@H](Cc1cnc[nH]1)NC(=O)[C@H](CC(C)C)NC(=O)[C@H](CC(C)C)NC(=O)[C@H](C)NC(=O)[C@H](CC(N)=O)NC(=O)[C@H](CC(C)C)NC(=O)[C@H](Cc1c[nH]c2ccccc12)NC(=O)[C@@H](N)CCCCN)C(=O)N[C@@H](CC(N)=O)C(=O)N[C@@H](CSSC[C@H](NC(=O)[C@H](CC(N)=O)NC(=O)[C@H](CC(C)C)NC(=O)CNC(=O)[C@H](Cc1cnc[nH]1)NC(=O)[C@H](Cc1cnc[nH]1)NC(=O)[C@H](CC(C)C)NC(=O)[C@H](CC(C)C)NC(=O)[C@H](C)NC(=O)[C@H](CC(N)=O)NC(=O)[C@H](CC(C)C)NC(=O)[C@H](Cc1c[nH]c2ccccc12)NC(=O)[C@@H](N)CCCCN)C(=O)N[C@@H](C)C(=O)N[C@@H](CCCCN)C(=O)NCC(=O)N[C@H](C(=O)N[C@@H](CC(C)C)C(=O)N[C@@H](C)C(N)=O)C(C)C)C(=O)N[C@@H](C)C(=O)N[C@@H](CCCCN)C(=O)NCC(=O)N[C@H](C(=O)N[C@@H](CC(C)C)C(=O)N[C@@H](C)C(N)=O)C(C)C (I: H-KWLNALLHHGLNCAKGVLA-NH2 / II: H-KWLNALLHHGLNCAKGVLA-NH2; disulfide I:13-II:13)
CFU [1]: 3
MIC [2]: 4 µg/mL (≈ 0.973 µM)
Drug uptake [3]: Active
Drug uptake [4]: Active
Activity [5]: Active
Drug uptake [6]: Active
Activity [7]: Active
Drug uptake [8]: Active
